The record followed here is patent US12084442B2, “Naphthyridinone derivatives for the treatment of a disease or disorder” (Novartis AG, priority 2021, dated 2024).

The structures appear in SMILES notation.

One data set has as its target GIRK1/4 (Homo sapiens (Human), UniProt P48544+P48549). Put plainly: GIRK1/4 activity assay (Quattro/IonWorks population patch clamp, inward potassium current). It counts as cell-based. Conditions: GIRK1/4 HEK293 stable cells; current inhibition normalized to DMSO-only control. Here is the method: The GIRK1/4 activity of a compound according to the present invention was assessed by the following in vitro method.
• a. External buffer: 10 mM NaCl, 50 mM Na Gluconate, 80 mM K Gluconate, 1.8 mM CaCl2, 1 mM MgCl2, 10 mM HEPES, 10 mM Glucose, pH 7.4; osmolarity 300-310 Osm/L. • b. Internal buffer: 30 mM KCl, 100 mM K Gluconate, 1 mM MgCl2, 10 mM HEPES, 1 mM EGTA, 10 mM NaCl, pH 7.2; osmolarity 284-292 Osm/L. Compounds: • c. Prepare seven-fold compound dilution series (10 mM to 20 uM) in 100% DMSO, in 384-well polypropylene plates. • d. Propafenone (Sigma Aldrich, catalog number P4670) was used as a positive control and DMSO for neutral control • e. Resuspend 1 μl of compounds in DMSO into 66.7 μl external buffer in 384-well polypropylene plate and load into Plate 1 section of Molecular Devices Quattro® Quattro Setup: • f. Load 384-well Population Patch Plate (Molecular Devices #9000-0902) into Quattro • g. Fill Quattro F-soak trough with 20% DMSO and 50% EtOH • h. Fill Quattro buffer trough with external buffer • i. Attach internal buffer flask to Quattro internal buffer tubing • j. Attach PBS (Phosphate Buffered Saline, minus Ca^++ and Mg^++, pH7.4) bottle to F-head & E-head wash on Quattro Antibiotic: • k. Resuspend 5.1-5.8 mg amphotericin B (Sigma Aldrich, catalog number A2411) in 175 μl DMSO • l. Add the resulting solution to 50 mL internal buffer and attach to antibiotic tubing port on Quattro Cells: • m. Use GIRK1/4 HEK293 stable cells (obtained from ChanTest, 14656 Neo Parkway, Cleveland, Ohio 44128) grown to ˜80% confluency in the following cell culture medium: DMEM containing 10% (v/v) Fetal Bovine Serum, Penicillin/Streptomycin (at “IX” concentration from a 100× stock), 0.5 mg/mL G418 and 0.1 mg/mL Zeocin. • n. Detach cells using Detachin (Genlantis, 11011 Torreyana, San Diego, CA 92121), washed with PBS (minus Ca^++ and Mg^++) and resuspend in external buffer (5 mL final volume at 2.0-2.1×10^6 cells/mL) • o. Load into cell trough of Quattro Assay Protocol:
Quattro was controlled using IonWorks v2 software to perform the following steps: • p. Added 3.5 μl cells plus 3.5 μl external buffer to wells of Quattro Patch Plate® • q. Circulated amphotericin B and internal buffer onto cells • r. Applied the following voltage protocol: Pulse 1: 15 mV for 300 milliseconds (ms), followed by Pulse 2: −120 mV for 400 ms, then Pulse 3: −15 mV for 400 ms, and finally Pulse 4: −120 mV to 40 mV over 500 ms (this is a voltage ramp). • s. Measured magnitude of inward potassium current at time point between 1200-1220 ms from start of Pulse 1 (i.e., during the voltage ramp phase). • t. Added 3.5 μl of diluted compounds (or DMSO) to wells and repeated […] (final compound concentrations are 50 uM to 0.1 uM, and each concentration was tested in quadruplicate—i.e., in 4 separate wells). • u. The difference between current magnitude pre vs. post-compound gave a measure of GIRK1/4 inhibition. Data Analysis:
IC50 values were calculated by plotting the percentage of current inhibition (normalized to the DMSO-only control) as a function of compound concentration using standard data analysis software.

Data set [1] in a line: Pharmacokinetic properties in rats (IV and PO, whole blood LC-MS/MS). The format is in vivo, Spargue Dawley/CD, male. Conditions: for Rat AUC0-24 h 3 mg/kg: 3 mg/kg PO, suspension; for Rat AUC0-24 h 3 mg/kg / clearance: whole blood; for clearance: male, Sprague Dawley/CD, rat, IV dosing (0.3-1 mg/kg), CL = Dose/AUCinf; for Rat F: oral bioavailability, PO 3 mg/kg vs IV. Here is the method:
The pharmacokinetic properties of the compounds in rats were assessed by the following in vivo studies as described below.
At least four days before first drug administration, the rats (250-350 g) were anesthetized and, under aseptic conditions, catheters were surgically implanted into the left and right jugular veins (one for blood collection and the other one for intravenous injection). The catheters were exteriorized and fixed at the neck. For analgesic treatment, animals received analgesics before surgery and subsequently twice at appropriate times after surgery. The freely-moving animals equipped with catheters are kept individually in Macrolon cages, with free access to food and water throughout the experiment. After a recovery phase of at least 4 days, a single test compound was administered intravenously or orally, based upon the individual body weights.
The test articles were administered as solution in NMP:PEG 200 (10:90 v/v). Test articles where no solution can be obtained were rejected and not used in discrete or cassette dosing.
The test article were administered as suspension in MC:Tween 80:water (0.5:0.1:99.4 w/v/v).
The test article was administered as solution and as a bolus injection or as short I.V. infusion (30 seconds) via the left jugular vein catheter to conscious rats. The dose volume was 0.5 mL/kg body weight.
The test article was administered as a solution or suspension into the esophagus via a gavage tube to conscious rats. The dose volume was 5 mL/kg body weight. The exact start time of dosing and exact dose volume was noted.
Blood samples (20 μL) were collected from the right jugular vein catheter of cannulated animals (if JV catheter becomes non patent during the PK experiment (i.e., after dosing), blood can exceptionally be collected by tail vein puncture but it must be clearly specified into the in-life observations and data study rep) in tubes containing 10% of blood of 2% W/V K2 EDTA (2.0 mg/mL) at the different time intervals. Blood was collected following IV dosing at 0.083, 0.25, 0.5, 1, 2, 4, 7 and 24 h post dose. Blood was collected following PO dosing: 0.25, 0.5, 1, 2, 4, 7 and 24 h post dose.
The concentrations of compounds in whole blood were quantified using a liquid chromatography/mass spectrometry (LC-MS/MS) assay. 20 μL of each blood sample were precipitated with 100 μL of acetonitrile containing generic internal standards (carbamazepine/telmisartan/verapamil; c=50 ng/mL). The samples were vortexed thoroughly then centrifuged (5 min, 4° C.). The supernatant (80 μL) was transferred to a clean 96-well plate and mixed with 80 μL of water.
The samples were injected (1 to 20 μL) onto suitable analytical columns, using various isocratic methods and flow rates. Mobile phases typically consisting of 0.1% formic acid in water (solvent A) and 0.1% formic acid in acetonitrile (solvent B) with additional modifiers, if needed. Compounds and the internal standards were eluted at various retention times. The HPLC systems were interfaced to mass spectrometers. MS/MS analyses were carried out using electrospray ionization (ESI), typically in the positive ionization mode. Compounds and the internal standards were monitored using multiple reaction monitoring (MRM).
The standard curves employed for sample quantitation ranged over several log units. The lower limit of quantitation (LLOQ) in blood was determined and used as cutoff for the analytical sensitivity. Known amounts of the compounds were spiked into blood to create quality control samples with six known concentrations in singlets. The accuracy of the in vivo blood sample concentration determination was considered acceptable when the intra-assay accuracies obtained for the quality control samples were within 70% to 130% of the expected concentrations. Subsequently, from the time concentration data, pharmacokinetic parameters were calculated by non-compartmental regression analyses using an in house fitting program. […]

The nature of data set [2]: Pharmacokinetic study in male Beagle dogs. The format is in vivo.

Chain of GIRK1/4 (P48549 whole entry): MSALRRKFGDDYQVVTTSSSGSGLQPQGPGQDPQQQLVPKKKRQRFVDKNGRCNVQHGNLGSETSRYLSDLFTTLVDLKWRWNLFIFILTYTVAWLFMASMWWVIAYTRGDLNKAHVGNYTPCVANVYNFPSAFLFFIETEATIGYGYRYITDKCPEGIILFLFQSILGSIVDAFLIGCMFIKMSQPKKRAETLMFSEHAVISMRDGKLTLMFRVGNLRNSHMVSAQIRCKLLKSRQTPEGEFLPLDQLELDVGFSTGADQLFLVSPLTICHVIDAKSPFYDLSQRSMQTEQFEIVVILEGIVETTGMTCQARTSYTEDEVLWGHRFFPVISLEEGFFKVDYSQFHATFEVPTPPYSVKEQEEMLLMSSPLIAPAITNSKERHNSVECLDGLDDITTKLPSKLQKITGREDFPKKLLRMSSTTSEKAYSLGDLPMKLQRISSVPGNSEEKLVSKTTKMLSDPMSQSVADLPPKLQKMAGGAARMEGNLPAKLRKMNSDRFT
Chain of GIRK1/4 (P48544 whole entry): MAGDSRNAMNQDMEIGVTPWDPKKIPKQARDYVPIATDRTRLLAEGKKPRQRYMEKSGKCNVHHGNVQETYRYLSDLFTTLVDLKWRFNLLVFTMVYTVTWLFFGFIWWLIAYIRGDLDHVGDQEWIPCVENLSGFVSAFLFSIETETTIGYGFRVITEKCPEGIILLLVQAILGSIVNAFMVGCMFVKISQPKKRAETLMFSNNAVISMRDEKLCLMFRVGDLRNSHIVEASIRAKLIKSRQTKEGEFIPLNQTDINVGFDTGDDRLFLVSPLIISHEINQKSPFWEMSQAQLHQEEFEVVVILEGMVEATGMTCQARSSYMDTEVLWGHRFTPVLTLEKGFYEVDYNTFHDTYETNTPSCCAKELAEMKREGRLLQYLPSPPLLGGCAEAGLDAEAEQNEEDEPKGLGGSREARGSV

`CNC(=O)CCOc1ncc(Cl)c2c1c(=O)cc(C)n2-c1c(Cl)cc(OCCO)cc1Cl` [Example 1, 3-((8-Chloro-1-(2,6-dichloro-4-(2-hydroxyethoxy)phenyl)-2-methyl-4-oxo-1,4-dihydro-1,6-naphthyridin-5-yl)oxy)-N-methylpropanamide] had an IC50 on GIRK1/4 of 90 nM. Further, in data set [1], the “Rat AUC0-24 h 3 mg/kg” value is given as 3270 nMh, the clearance turned out to be 20.2 mL/min/kg and the “Rat F” value was 71%. The molecule further returned an AUC0-24 h in data set [2] (0.3 mg/kg IV solution and 1 mg/kg PO suspension) of 5270 nMh. Besides, the clearance in data set [2] (dog, in vivo, 0.3 mg/kg IV as a solution, read-out: Clearance (Cl)) amounted to 5.5 mL/min/kg. Further, the bioavailability in data set [2] (dog, in vivo, 1 mg/kg PO as a suspension vs 0.3 mg/kg IV, read-out: Oral bioavailability (F)) was 87%.

For the molecule `CNC(=O)COc1ncc(Cl)c2c1c(=O)cc(C)n2-c1c(Cl)cc(OCCO)cc1Cl` [Example 5, 2-((8-Chloro-1-(2,6-dichloro-4-(2-hydroxyethoxy)phenyl)-2-methyl-4-oxo-1,4-dihydro-1,6-naphthyridin-5-yl)oxy)-N-methylacetamide], the midpoint of inhibition on GIRK1/4, the IC50, lay at 60 nM. In data set [1], the “Rat AUC0-24 h 3 mg/kg” value is recorded as 2336 nMh, the clearance came out at 14.6 mL/min/kg and the “Rat F” value was 33%.

`CNC(=O)CCOc1ncc(Cl)c2c1c(=O)cc(C)n2-c1c(Cl)cc(OC[C@@H](C)O)cc1Cl` [Example 6, (R)-3-((8-Chloro-1-(2,6-dichloro-4-(2-hydroxypropoxy)phenyl)-2-methyl-4-oxo-1,4-dihydro-1,6-naphthyridin-5-yl)oxy)-N-methylpropanamide] had an IC50 at GIRK1/4 of 130 nM. For the same molecule, in data set [1], the “Rat AUC0-24 h 3 mg/kg” value is given as 3570 nMh, the clearance was 21.6 mL/min/kg and the “Rat F” value is 82%.

Molecule `Cc1cc(=O)c2c(OCC(=O)NCCO)ncc(Cl)c2n1-c1c(Cl)cc(OCCO)cc1Cl` [Example 2, 2-((8-Chloro-1-(2,6-dichloro-4-(2-hydroxyethoxy)phenyl)-2-methyl-4-oxo-1,4-dihydro-1,6-naphthyridin-5-yl)oxy)-N-(2-hydroxyethyl)acetamide] registered an IC50 against GIRK1/4 of 220 nM. In data set [1], the “Rat AUC0-24 h 3 mg/kg” value is reported as 1288 nMh, the clearance is 23 mL/min/kg and the “Rat F” value amounted to 29%.

The molecule `CNC(=O)CCOc1ncc(Cl)c2c1c(=O)cc(C)n2-c1c(Cl)cc(OCC(C)(C)O)cc1Cl` [Example 3, 3-((8-Chloro-1-(2,6-dichloro-4-(2-hydroxy-2-methylpropoxy)phenyl)-2-methyl-4-oxo-1,4-dihydro-1,6-naphthyridin-5-yl)oxy)-N-methylpropanamide] displayed a 50% inhibitory concentration (IC50) against GIRK1/4 of 220 nM. In data set [1], the “Rat AUC0-24 h 3 mg/kg” value stood at 7738 nMh, the clearance is 5.7 mL/min/kg and the “Rat F” value was 47%.

`CC(=O)NCCOc1ncc(Cl)c2c1c(=O)cc(C)n2-c1c(Cl)cc(OCCO)cc1Cl` [Example 9, N-(2-((8-chloro-1-(2,6-dichloro-4-(2-hydroxyethoxy)phenyl)-2-methyl-4-oxo-1,4-dihydro-1,6-naphthyridin-5-yl)oxy)ethyl)acetamide] yielded a half-inhibitory concentration (IC50) at GIRK1/4 of 80 nM. Also, in data set [1], the “Rat AUC0-24 h 3 mg/kg” value is recorded as 1460 nMh, the clearance stood at 24.2 mL/min/kg and the “Rat F” value turned out to be 40%.

`Cc1cc(=O)c2c(CCCS(C)(=O)=O)ncc(Cl)c2n1-c1c(Cl)cc(OCC(C)(C)O)cc1Cl` [Example 22, 8-Chloro-1-(2,6-dichloro-4-(2-hydroxy-2-methylpropoxy)phenyl)-2-methyl-5-(3-(methylsulfonyl)propyl)-1,6-naphthyridin-4(1H)-one]: the IC50 at GIRK1/4 was 190 nM. In data set [1], the “Rat AUC0-24 h 3 mg/kg” value came out at 1360 nMh, the clearance turned out to be 23.6 mL/min/kg and the “Rat F” value came to 37%.

As for `CNC(=O)COc1ncc(Cl)c2c1c(=O)cc(C)n2-c1c(Cl)cc(OCC(C)(C)O)cc1Cl` [Example 4, 2-((8-Chloro-1-(2,6-dichloro-4-(2-hydroxy-2-methylpropoxy)phenyl)-2-methyl-4-oxo-1,4-dihydro-1,6-naphthyridin-5-yl)oxy)-N-methylacetamide], the IC50 on GIRK1/4 was determined as 160 nM. Besides, in data set [1], the “Rat AUC0-24 h 3 mg/kg” value turned out to be 3674 nMh, the clearance stood at 5.5 mL/min/kg and the “Rat F” value is 22%.

At GIRK1/4, `CNC(=O)[C@H](C)COc1ncc(Cl)c2c1c(=O)cc(C)n2-c1c(Cl)cc(OCCO)cc1Cl` [Example 7, (R)-3-((8-Chloro-1-(2,6-dichloro-4-(2-hydroxyethoxy)phenyl)-2-methyl-4-oxo-1,4-dihydro-1,6-naphthyridin-5-yl)oxy)-N,2-dimethylpropanamide] returned a half-inhibitory concentration (IC50) of 70 nM. Moreover, in data set [1], the “Rat AUC0-24 h 3 mg/kg” value amounted to 4410 nMh, the clearance came to 13.6 mL/min/kg and the “Rat F” value worked out at 61%.

Take `Cc1cc(=O)c2c(CCS(C)(=O)=O)ncc(Cl)c2n1-c1c(Cl)cc(OCCO)cc1Cl` [Example 20, 8-Chloro-1-(2,6-dichloro-4-(2-hydroxyethoxy)phenyl)-2-methyl-5-(2-(methylsulfonyl)ethyl)-1,6-naphthyridin-4(1H)-one]: it took 50 nM to reach half-maximal inhibition against GIRK1/4 (IC50). For the same molecule, in data set [1], the “Rat AUC0-24 h 3 mg/kg” value turned out to be 2407 nMh, the clearance was determined as 19.8 mL/min/kg and the “Rat F” value turned out to be 44%.
